For orientation: ED50 means the midpoint of the dose-response relation. The EC50 is the concentration that produces a half-maximal response.

The record followed here is US12570612B2, “Substituted nitrogen heterocyclic compound and anesthetic effect thereof” (priority 2019, dated 2026).

Each structure is given as a SMILES string. “Also recorded” adds a separate entry of the source.

For the first data set, the system named is Sprague-Dawley rats. In words: animal or person. To be noted: LORR in rats, tail vein; brackets = 95% confidence limit. The method, then:
Adult male Sprague-Dawley rats (250-300 g) were selected for the experiment. […] The anesthesia effects of the compounds were assessed in rats using a LORR assay and a period >30 s was considered as an indicator of general anesthesia.
With `CCC(CC)OC(=O)c1ccnn1[C@H](C)c1ccccc1` [Compound A21], the ED50 entry is “D (D indicates that the measured ED50 is in the range of 2.00-6.00 mg/kg (excluding 2.00 mg/kg, including 6.00 mg/kg))”.

The data set is the same for the next values; noted with them: Rattus norvegicus.
In turn, `C=CC1(OC(=O)c2ccnn2[C@H](C)c2ccccc2)COC1` [Compound A34] registered an ED50 of 0.5 to 1 mg/kg.

On to `C=CC#CC(C)OC(=O)c1ccnn1[C@H](C)c1ccccc1` (stereo partly drawn) [Compound A15], for which the ED50 was 2 to 6 mg/kg.

`C=C=CC1(OC(=O)c2c(F)c(F)nn2[C@H](C)c2ccccc2)COC1` [Compound A92] came in with an ED50 of 0.04 to 0.5 mg/kg.

For `CC#CC1(OC(=O)c2ccnn2[C@H](C)c2ccccc2)COC1` [Compound A10], the ED50 is 2 to 6 mg/kg.

The molecule `CC(=O)C1=C(OC(=O)c2c(F)c(F)nn2[C@H](C)c2ccccc2)CCC1` [Compound A98] showed a 50% effective dose (ED50) of 1 to 2 mg/kg.

Turning to `CC#CCOC(=O)c1c(F)cnn1[C@H](C)c1ccccc1` [Compound A72], the ED50 is 0.04 to 0.5 mg/kg.

Molecule `CO[C@H]1C[C@@H](OC(=O)c2ccnn2[C@H](C)c2ccccc2)C1` [Compound A25] yielded an ED50 of 0.04 to 0.5 mg/kg.

Staying with this data set, now noted: rats.
Molecule `C=CC1(OC(=O)c2ccnn2[C@H](C)c2ccccc2)COC1` [Compound A34] returned an Approximate therapeutic index of more than 6 and a Minimal lethal dose of more than 4 mg/kg.

On to `C=CC#CC(C)OC(=O)c1ccnn1[C@H](C)c1ccccc1` (stereo partly drawn) [Compound A15], for which the Approximate therapeutic index is given as more than 4 and the Minimal lethal dose was more than 9 mg/kg.

Molecule `C=C=CC1(OC(=O)c2c(F)c(F)nn2[C@H](C)c2ccccc2)COC1` [Compound A92] displayed an Approximate therapeutic index of more than 14 and a Minimal lethal dose of more than 1 mg/kg.

`CC#CC1(OC(=O)c2ccnn2[C@H](C)c2ccccc2)COC1` [Compound A10] displayed an Approximate therapeutic index of more than 5 and a Minimal lethal dose of more than 12 mg/kg.

Molecule `CC(=O)C1=C(OC(=O)c2c(F)c(F)nn2[C@H](C)c2ccccc2)CCC1` [Compound A98] registered an Approximate therapeutic index of more than 7 and a Minimal lethal dose of more than 10 mg/kg.

`CC#CCOC(=O)c1c(F)cnn1[C@H](C)c1ccccc1` [Compound A72] yielded an Approximate therapeutic index of more than 100 and a Minimal lethal dose of more than 11 mg/kg.

`CO[C@H]1C[C@@H](OC(=O)c2ccnn2[C@H](C)c2ccccc2)C1` [Compound A25] had an Approximate therapeutic index of more than 21 and a Minimal lethal dose of more than 5 mg/kg.

In turn, `CCC(CC)OC(=O)c1ccnn1[C@H](C)c1ccccc1` [Compound A21] registered an Approximate therapeutic index of more than 16 and a Minimal lethal dose of more than 6 mg/kg.

Another data set has as its system Sprague-Dawley rats. In words: Pharmacological characteristics at equivalent doses (2ED50), Group A compounds. To be noted: 2ED50, tail vein. It is filed as in vivo. Set-up: Sedation duration: unit not given here.
Turning to `C=CC1(OC(=O)c2ccnn2[C@H](C)c2ccccc2)COC1` [Compound A34], the Onset time is listed as 0.60 ± 0.32 min and the Righting reflex duration was found to be 1.6 ± 0.43 min.

Consider `C=CC#CC(C)OC(=O)c1ccnn1[C@H](C)c1ccccc1` (stereo partly drawn) [Compound A15], for which the Onset time is 0.40 ± 0.10 min and the Righting reflex duration is listed as 1.82 ± 0.76 min.

As to `C=C=CC1(OC(=O)c2c(F)c(F)nn2[C@H](C)c2ccccc2)COC1` [Compound A92], the Onset time is 0.43 ± 0.22 min and the Righting reflex duration came out at 2.03 ± 0.33 min.

In the case of `CC#CC1(OC(=O)c2ccnn2[C@H](C)c2ccccc2)COC1` [Compound A10], the Onset time came out at 0.43 ± 0.22 min and the Righting reflex duration is reported as 1.32 ± 0.61 min.

Take `CC(=O)C1=C(OC(=O)c2c(F)c(F)nn2[C@H](C)c2ccccc2)CCC1` [Compound A98]: the Onset time came out at 0.30 ± 0.06 min and the Righting reflex duration turned out to be 1.89 ± 0.23 min.

Consider `CC#CCOC(=O)c1c(F)cnn1[C@H](C)c1ccccc1` [Compound A72], for which the Onset time is 0.41 ± 0.17 min and the Righting reflex duration was 0.71 ± 0.20 min.

As to `CO[C@H]1C[C@@H](OC(=O)c2ccnn2[C@H](C)c2ccccc2)C1` [Compound A25], the Onset time is reported as 0.50 ± 0.12 min and the Righting reflex duration amounted to 2.6 ± 0.83 min.

`CCC(CC)OC(=O)c1ccnn1[C@H](C)c1ccccc1` [Compound A21]: the Onset time worked out at 0.51 ± 0.10 min, the Righting reflex duration stood at 1.16 ± 0.39 min and the Sedation duration is listed as 8.65 ± 2.38.

Still in this data set, the particulars now being: 2ED50, tail vein, (animals affected/animals).
As for `C=CC1(OC(=O)c2ccnn2[C@H](C)c2ccccc2)COC1` [Compound A34], the “Types and incidence of adverse reactions” value is reported as “Red urine(8/8), Hindlimb; also recorded: rigidity(2/8), Tremor(1/8)”.

Regarding `C=CC#CC(C)OC(=O)c1ccnn1[C@H](C)c1ccccc1` (stereo partly drawn) [Compound A15], the “Types and incidence of adverse reactions” value is given as “Red urine(8/8),; also recorded: Euphoria(2/8), Hindlimb; also recorded: rigidity(2/8), Hindlimb; also recorded: Tremor(1/8)”.

Turning to `C=C=CC1(OC(=O)c2c(F)c(F)nn2[C@H](C)c2ccccc2)COC1` [Compound A92], the “Types and incidence of adverse reactions” value was “Red and urine(8/8), Tremor(2/8), and Euphoria(1/8)”.

With `CC#CC1(OC(=O)c2ccnn2[C@H](C)c2ccccc2)COC1` [Compound A10], the “Types and incidence of adverse reactions” value was “Red urine(8/8),; also recorded: Tremor(3/8), Forelimb; also recorded: clonic; also recorded: convulsion(2/8), Hindlimb; also recorded: rigidity(2/8), Facial; also recorded: muscle twitching(2/8),; also recorded: Nod(1/8)”.

Turning to `CC(=O)C1=C(OC(=O)c2c(F)c(F)nn2[C@H](C)c2ccccc2)CCC1` [Compound A98], the “Types and incidence of adverse reactions” value is reported as “Red urine(8/8), Facial; also recorded: muscle; also recorded: twitching(2/8), Hindlimb; also recorded: rigidity (1/8)”.

For `CC#CCOC(=O)c1c(F)cnn1[C@H](C)c1ccccc1` [Compound A72], the “Types and incidence of adverse reactions” value is “Red and urine(8/8), Tremor(1/8), and Hindlimb rigidity (1/8)”.

Turning to `CO[C@H]1C[C@@H](OC(=O)c2ccnn2[C@H](C)c2ccccc2)C1` [Compound A25], the “Types and incidence of adverse reactions” value is reported as “Red urine(8/8), Hindlimb; also recorded: rigidity (2/8), Tremor(1/8)”.

Consider `CCC(CC)OC(=O)c1ccnn1[C@H](C)c1ccccc1` [Compound A21], for which the “Types and incidence of adverse reactions” value was “Red and urine(8/8), Euphoria(3/8), and Four limbs Tremor(2/8), and Hindlimb rigidity (2/8)”.

In a further data set the test system is H295R cell line. In words: Adrenocortical function in vitro test: secretion of cortisol and corticosterone, Group A compounds. The settings on record: H295 cells. It is filed as cell-based.
Regarding `C=CC1(OC(=O)c2ccnn2[C@H](C)c2ccccc2)COC1` [Compound A34], the “Corticosterone as an indicator to determine the presence of inhibition” value (shortened to “Corticosterone as an indicator … of inhibition”) amounted to 0 and the “Cortisol as an indicator to determine the presence of inhibition” value (shortened to “Cortisol as an indicator … of inhibition”) came out at 0.

For `C=CC#CC(C)OC(=O)c1ccnn1[C@H](C)c1ccccc1` (stereo partly drawn) [Compound A15], the “Corticosterone as an indicator … of inhibition” value is 0 and the “Cortisol as an indicator … of inhibition” value stood at 0.

Turning to `C=C=CC1(OC(=O)c2c(F)c(F)nn2[C@H](C)c2ccccc2)COC1` [Compound A92], the “Corticosterone as an indicator … of inhibition” value was found to be 0 and the “Cortisol as an indicator … of inhibition” value is 0.

Take `CC#CC1(OC(=O)c2ccnn2[C@H](C)c2ccccc2)COC1` [Compound A10]: the “Corticosterone as an indicator … of inhibition” value is on record as 0 and the “Cortisol as an indicator … of inhibition” value stood at 0.

On to `CC(=O)C1=C(OC(=O)c2c(F)c(F)nn2[C@H](C)c2ccccc2)CCC1` [Compound A98], for which the “Corticosterone as an indicator … of inhibition” value turned out to be 0 and the “Cortisol as an indicator … of inhibition” value is on record as 0.

For `CC#CCOC(=O)c1c(F)cnn1[C@H](C)c1ccccc1` [Compound A72], the “Corticosterone as an indicator … of inhibition” value was 0 and the “Cortisol as an indicator … of inhibition” value turned out to be 0.

Consider `CO[C@H]1C[C@@H](OC(=O)c2ccnn2[C@H](C)c2ccccc2)C1` [Compound A25], for which the “Corticosterone as an indicator … of inhibition” value was determined as 0 and the “Cortisol as an indicator … of inhibition” value amounted to 0.

Take `CCC(CC)OC(=O)c1ccnn1[C@H](C)c1ccccc1` [Compound A21]: the “Corticosterone as an indicator … of inhibition” value is reported as 0 and the “Cortisol as an indicator … of inhibition” value is given as 0.

Staying with this data set, now noted: H295 cells, 0.1-10000 nM, HPLC-MS/MS; read-out: EC50 (Corticosterone).
As to `CCC(CC)OC(=O)c1ccnn1[C@H](C)c1ccccc1` [Compound A21], the EC50 is more than 100 nM.

The same data set, now with this note: H295 cells, 0.1-10000 nM, HPLC-MS/MS; read-out: EC50 (Cortisol).
For `CCC(CC)OC(=O)c1ccnn1[C@H](C)c1ccccc1` [Compound A21], the EC50 is more than 100 nM.

The same data set, now with this note: Homo sapiens; H295 cells, 0.1-10000 nM, HPLC-MS/MS; read-out: EC50 (Corticosterone).
In the case of `C=CC1(OC(=O)c2ccnn2[C@H](C)c2ccccc2)COC1` [Compound A34], the concentration for a half-maximal effect (EC50) was more than 1000 nM.

As to `C=CC#CC(C)OC(=O)c1ccnn1[C@H](C)c1ccccc1` (stereo partly drawn) [Compound A15], the EC50 was more than 100 nM.

For `C=C=CC1(OC(=O)c2c(F)c(F)nn2[C@H](C)c2ccccc2)COC1` [Compound A92], the EC50 is more than 1000 nM.

On to `CC#CC1(OC(=O)c2ccnn2[C@H](C)c2ccccc2)COC1` [Compound A10], for which the EC50 was more than 1000 nM.

On to `CC(=O)C1=C(OC(=O)c2c(F)c(F)nn2[C@H](C)c2ccccc2)CCC1` [Compound A98], for which the concentration giving a half-maximal response (EC50) is more than 1000 nM.

Turning to `CC#CCOC(=O)c1c(F)cnn1[C@H](C)c1ccccc1` [Compound A72], the EC50 is more than 1000 nM.

Regarding `CO[C@H]1C[C@@H](OC(=O)c2ccnn2[C@H](C)c2ccccc2)C1` [Compound A25], the EC50 is more than 1000 nM.

The data set is the same for the next values; noted with them: Homo sapiens; H295 cells, 0.1-10000 nM, HPLC-MS/MS; read-out: EC50 (Cortisol).
As to `C=CC1(OC(=O)c2ccnn2[C@H](C)c2ccccc2)COC1` [Compound A34], the EC50 is more than 1000 nM.

On to `C=CC#CC(C)OC(=O)c1ccnn1[C@H](C)c1ccccc1` (stereo partly drawn) [Compound A15], for which the EC50 is more than 100 nM.

As for `C=C=CC1(OC(=O)c2c(F)c(F)nn2[C@H](C)c2ccccc2)COC1` [Compound A92], the EC50 was more than 1000 nM.

In the case of `CC#CC1(OC(=O)c2ccnn2[C@H](C)c2ccccc2)COC1` [Compound A10], the concentration for a half-maximal effect (EC50) was more than 1000 nM.

For the molecule `CC(=O)C1=C(OC(=O)c2c(F)c(F)nn2[C@H](C)c2ccccc2)CCC1` [Compound A98], the EC50 is more than 1000 nM.

Take `CC#CCOC(=O)c1c(F)cnn1[C@H](C)c1ccccc1` [Compound A72]: the EC50 was more than 1000 nM.

Regarding `CO[C@H]1C[C@@H](OC(=O)c2ccnn2[C@H](C)c2ccccc2)C1` [Compound A25], the EC50 was more than 1000 nM.
